Columns and labels:
[1] = system: NCI-H1975; test: Antiproliferative activity against human H1975 cells assessed as inhibition of cell growth incubated for 72 hrs by CCK-8 assay; details: NCI-H1975, 72 h
[2] = system: A549; test: Antiproliferative activity against human A549 cells assessed as inhibition of cell growth incubated for 72 hrs by CCK-8 assay; details: A549, 72 h
[3] = system: HeLa; test: Antiproliferative activity against human HeLa cells assessed as reduction in cell viability after 24 hrs by MTT assay; type: functional, cell-based

SMILES	IC50 [1] [µM]	IC50 [2] [µM]	IC50 [3] [µM]
c1cc2c(cnc3c4cc5c(cc4ccc23)OCO5)c2c1OCO2	> 30	> 30	
C[n+]1cc2c3c(ccc2c2ccc4cc5c(cc4c21)OCO5)OCO3 [SANGUINARIUM CHLORIDE]	1.32	1.59	2.43
CN1c2c(ccc3cc4c(cc23)OCO4)-c2ccc3c(c2C1NC1CCCC1)OCO3 (centres undefined)	1.57	1.97	
Cn1c(=O)c2c3c(ccc2c2ccc4cc5c(cc4c21)OCO5)OCO3	> 30	> 30	
COC1c2c(ccc3c2OCO3)-c2ccc3cc4c(cc3c2N1C)OCO4 (centres undefined)	1.17	1.59	
CN1Cc2c(ccc3c2OCO3)-c2ccc3cc4c(cc3c21)OCO4 [DIHYDROSANGUINARINE]	19.1	> 30	
CN1c2c(ccc3cc4c(cc23)OCO4)-c2ccc3c(c2C1NCc1ccccc1)OCO3 (centres undefined)	3.13	4.35	

Second part, the compound after the results:

IC50 [1] [µM]	IC50 [2] [µM]	IC50 [3] [µM]	SMILES
> 30	> 30		CC1c2c(ccc3c2OCO3)-c2ccc3cc4c(cc3c2N1C)OCO4 (centres undefined)
1	1.48		CCCNC1c2c(ccc3c2OCO3)-c2ccc3cc4c(cc3c2N1C)OCO4 (centres undefined)
> 30	> 30		CCCN1Cc2c(ccc3c2OCO3)-c2ccc3cc4c(cc3c21)OCO4
0.96	1.46		CC(C)NC1c2c(ccc3c2OCO3)-c2ccc3cc4c(cc3c2N1C)OCO4 (centres undefined)
0.94	1.25		CCNC1c2c(ccc3c2OCO3)-c2ccc3cc4c(cc3c2N1C)OCO4 (centres undefined)
> 30	> 30		CCN1Cc2c(ccc3c2OCO3)-c2ccc3cc4c(cc3c21)OCO4
0.79	0.96		CN1c2c(ccc3cc4c(cc23)OCO4)-c2ccc3c(c2C1C#N)OCO3 (centres undefined)
